According to patent publication US20260144890A1, “ANTIBODY DRUG CONJUGATE COMPRISING NMT INHIBITOR CONJUGATED TO AN ANTIBODY” (MyricX Pharma Limited, priority 2024, published 2026):
Like-named read-outs stand apart in the source and are kept apart here.

Assays:
[1] = test system: SU-DHL-10 cell line; experiment: Cell cytotoxicity in SU-DHL-10 cell line (CTG, 72 h); format: cell-based; settings: Homo sapiens, SU-DHL10, 72 h, 72 h treatment
Protocol: Certain NMT inhibitors were tested in the SU-DHL-10 cell line (human B cell lymphoma). Compounds which show efficacy in this assay are expected to be useful as agents for treating or preventing hyperproliferative disorders such as cancer.
Cells were seeded in 96-well microplates and treated with compounds or cisplatin (as a positive control) at 9 increasing concentrations in technical triplicate. […] On day 1, 90 μL of various cell suspensions with the number of cells ranging from 5000-8000 cells/well were seeded into wells of a 96-well plate (Corning). The number of cells to be seeded was previously determined. • 2. All 96-wells plates with cells were placed in an incubator overnight at 37° C. with 5% CO2. • 3. On day 2, cells were observed under a microscope ensuring the cells treated with vehicle control were in good condition. • 4. A dilution series of the test compounds and cisplatin were prepared at 10× the final concentrations required. 10 μL/well of 10× compound solution was added to the corresponding plates. The final volume was 100 μL/well for all the plates. […]
Luminescence was recorded using an EnVision Multi Label Reader. […]
(LumTest article=luminescence in test article treated well; LumNone treated=luminescence in vehicle treated well; LumMedium control=luminescence in a well containing only medium and no cells; LumNone treated−LumMedium control was set as 100%).

[2] = test system: BT474 breast cancer cells; experiment: Orthotopic breast cancer xenograft model (BT474); format: in vivo, mouse
Protocol: During the study, body weights were measured three times weekly for all animals. Animals were given Diet Gel for the entire duration on the study.

[3] = test system: gastric cancer organoid GA2109B; experiment: Gastric cancer organoid viability (CTG 3D), GA2109B; format: cell-based; design: unit not given beside the values
Protocol: (§1) Day −1: Patient derived gastric cancer organoids (PDXOs) are sheared to uniform sizes and the required number of organoids are combined 1:1 with 50% Matrigel to produce the right size of the organoids to perform the screen.
(§2) Day 0: Organoid seeding • 1. Collect organoids from each well by adding 20 μl 100× Dispase solution to each well from a 6-well plate, which contains 2 ml of organoid medium. • 2. Put the plates back in the incubator, 37° C. for 30 min. • 3. Collect organoids from all wells and pipet through a pre-wet 100 μm filter into a 50 ml plastic tube. • 4. Once all wells have been filtered over 100 μm filters, filter the flow though over a pre-wet 20 μm filter. • 5. […]
(§3) • 10. Place screening plates back into the incubator before adding compounds and day 0 reading. […] One is for day 0 reading (TO) and the other for reading at the end point.
(§4) Day 0: Compounds treatment and Day 0 baseline CTG (cell titre glo) reading • 11. […] For day 0 reading plate, add 40 μL of CTG 3D per well and read luminescent signal on Envision plate reader.
(§5) Day 6: Endpoint CTG reading. • 1. Read assay plates for luminescent CTG signal at the end of the assays: add 40 μL of CTG 3D per well by Multidrop dispenser, mix the contents for 5 min on the plate shaker, and incubate the plates for 30 min at room temperature in dark. Read luminescent signal on Envision plate reader. […]

[4] = test system: gastric cancer organoid GA6877B; experiment: Gastric cancer organoid viability (CTG 3D), GA6877B; format: cell-based; design: unit not given beside the values
Protocol: as §1, §2, §3, §4, §5

[5] = test system: gastric cancer organoid GA0098B; experiment: Gastric cancer organoid viability (CTG 3D), GA0098B; format: cell-based; design: AUC (area under curve): unit not given beside the values
Protocol: as §1, §2, §3, §4, §5

[6] = test system: gastric cancer organoid GA0087B; experiment: Gastric cancer organoid viability (CTG 3D), GA0087B; format: cell-based; design: AUC (area under curve): unit not given beside the values
Protocol: as §1, §2, §3, §4, §5

[7] = test system: gastric cancer organoid GA6833B; experiment: Gastric cancer organoid viability (CTG 3D), GA6833B; format: cell-based; design: unit not given beside the values
Protocol: as §1, §2, §3, §4, §5

[8] = test system: gastric cancer organoid GA3055B; experiment: Gastric cancer organoid viability (CTG 3D), GA3055B; format: cell-based; design: unit not given beside the values
Protocol: as §1, §2, §3, §4, §5

[9] = test system: gastric cancer organoid GA0060B; experiment: Gastric cancer organoid viability (CTG 3D), GA0060B; format: cell-based; design: unit not given beside the values
Protocol: as §1, §2, §3, §4, §5

[10] = test system: gastric cancer organoid GA6891B; experiment: Gastric cancer organoid viability (CTG 3D), GA6891B; format: cell-based; design: AUC (area under curve): unit not given beside the values
Protocol: as §1, §2, §3, §4, §5

[11] = test system: gastric cancer organoid GA6866B; experiment: Gastric cancer organoid viability (CTG 3D), GA6866B; format: cell-based; design: unit not given beside the values
Protocol: as §1, §2, §3, §4, §5

[12] = test system: gastric cancer organoid GA0119B; experiment: Gastric cancer organoid viability (CTG 3D), GA0119B; format: cell-based; design: AUC (area under curve): unit not given beside the values
Protocol: as §1, §2, §3, §4, §5

[13] = test system: gastric cancer organoid GA6894B; experiment: Gastric cancer organoid viability (CTG 3D), GA6894B; format: cell-based; design: AUC (area under curve): unit not given beside the values
Protocol: as §1, §2, §3, §4, §5

[14] = test system: gastric cancer organoid GA0091B; experiment: Gastric cancer organoid viability (CTG 3D), GA0091B; format: cell-based; design: AUC (area under curve): unit not given beside the values
Protocol: as §1, §2, §3, §4, §5

[15] = test system: gastric cancer organoid GA6815B; experiment: Gastric cancer organoid viability (CTG 3D), GA6815B; format: cell-based; design: AUC (area under curve): unit not given beside the values
Protocol: as §1, §2, §3, §4, §5

[16] = test system: gastric cancer organoid GA3102B; experiment: Gastric cancer organoid viability (CTG 3D), GA3102B; format: cell-based; design: unit not given beside the values
Protocol: as §1, §2, §3, §4, §5

[17] = test system: gastric cancer organoid GA0429B; experiment: Gastric cancer organoid viability (CTG 3D), GA0429B; format: cell-based; design: unit not given beside the values
Protocol: as §1, §2, §3, §4, §5

[18] = test system: gastric cancer organoid GA2434B; experiment: Gastric cancer organoid viability (CTG 3D), GA2434B; format: cell-based; design: unit not given beside the values
Protocol: as §1, §2, §3, §4, §5

[19] = test system: VCaP human prostate cancer xenograft; experiment: VCaP prostate cancer xenograft model; format: in vivo, mouse
Protocol: In this study, 144 mice were inoculated subcutaneously in the right front flank region with 1×10^7 viable VCaP tumour cells resuspended in 0.1 mL of PBS mixed with Matrigel (1:1) for tumour development on Study Day −20. 80 mice were assigned to 8 treatment groups when tumour volumes averaged ˜162.16 mm^3 on Study Day 0. Dosing commenced the following day and all animals were dosed intravenously with ADC Example 4, ifinatamab-deruxtecan (ifinatamab-Dxd) or unconjugated ifinatamab. All mice received two doses of test agent, on Study Day 1 and Study Day 8. The study was terminated on Study Day 30. • The 8 groups were assigned as follows: […]

[20] = test system: LNCaP tumours; experiment: LNCaP prostate cancer xenograft model; settings: for Day 28 tumour volume (mean ± SEM) / Tumour growth inhibition (TGI, %): IV, Q7D (x3); for Tumour growth inhibition (TGI, %): day 28
Protocol: A total of 84 male NOD SCID mice aged 5-8 weeks and weighing 25-30 g were used for the study.
• Duration of observation: 35 days. • Dosing volume: 5 mL/kg for all IV doses

[21] = test system: JIMT-1 human breast xenograft; format: in vivo
Text: The study was terminated on the Study Day 60.

[22] = test system: JIMT-1 human breast xenograft; experiment: JIMT1 breast cancer xenograft model (Balb/c nude mice, ADC Example 1); format: in vivo, mouse
Protocol: In this study, 72 mice were inoculated subcutaneously in the right front flank region with 1×10^7 viable JIMT-1 tumour cells resuspended in Matrigel (1:1) on Study Day −15. When tumours reached a tumour volume of approximately 120-150 mm^3, 60 mice with the most similarly sized tumours were randomly assigned to 6 treatment groups on Study Day 0. […] The study was terminated on Study Day 58. The dosing regimen was as follows:
The body weight of all mice in each group was measured and recorded three times weekly throughout the duration of the study. Moreover, the tumour volume was measured (mm^3) and recorded using digital calipers three times weekly throughout the duration of the study. In particular, the length, width, and depth of the tumour were each measured and used to calculate tumour volume (mm^3). The results are shown in FIG. 58, FIG. 59, and FIG. 60.

CNCc1cnc2ccc(-c3ccc(F)c(F)c3OCCc3c(C(O)C(C)(C)C)nn(C)c3C)cn12 (single isomer, unassigned) [compound 13, 1-(4-(2-(2,3-difluoro-6-(3-((methylamino)methyl)imidazo[1,2-a]pyridin-6-yl)phenoxy)ethyl)-1,5-dimethyl-1H-pyrazol-3-yl)-2,2-dimethylpropan-1-ol]
IC50 [1]: 0.7 nM

CNCc1cnc2ccc(-c3ccc(F)c(F)c3OCCc3c(C(O)C(C)(C)C)nn(C)c3C)cn12 (stereo not shown) [NMT inhibitor 1, 1-(4-(2-(2,3-difluoro-6-(3-((methylamino)methyl)imidazo[1,2-a]pyridin-6-yl)phenoxy)ethyl)-1,5-dimethyl-1H-pyrazol-3-yl)-2,2-dimethylpropan-1-ol]
tumour size ([2]; 2.0 mg/kg, 2 days dosing then 5 day holiday, stopped at day 13): reduced tumour size
body weights of mice ([2]; trastuzumab and ADC 2.5 and 5 mg/kg, NMT inhibitor 1 2 mg/kg): decreased significantly

CN[C@@H]1C[C@H]2O[C@@](C)([C@@H]1OC)n1c3ccccc3c3c4c(c5c6ccccc6n2c5c31)C(=O)NC4 [Staurosporine]
AUC (area under curve) [3]: 233.3136
AUC (area under curve) [4]: 175.472
AUC (area under curve) [5]: 239.6
IC50 [5]: 22.1 nM
AUC (area under curve) [6]: 113.2
IC50 [6]: 2.9 nM
AUC (area under curve) [7]: 158.1701
AUC (area under curve) [8]: 144.7132
AUC (area under curve) [9]: 85.1
AUC (area under curve) [10]: 174.0868
IC50 [10]: 9 nM
AUC (area under curve) [11]: 201.1356
AUC (area under curve) [12]: 212.2837
IC50 [12]: 8.9 nM
AUC (area under curve) [13]: 230.6577
IC50 [13]: 8.5 nM
AUC (area under curve) [14]: 199.9
IC50 [14]: 22.2 nM
AUC (area under curve) [15]: 194.3428
IC50 [15]: 15.8 nM
AUC (area under curve) [16]: 200.7667
AUC (area under curve) [17]: 170.8729
AUC (area under curve) [18]: 226.6809

ifinatamab
tumour volume compared to vehicle alone ([19]; 2.5 mg/kg): no significant difference
ΔTGI (Study Day 17) ([19]; 2.5 mg/kg QW x 2 weeks IV): 8.47%
tumour volume compared to vehicle alone ([19]; 5 mg/kg): no significant difference
ΔTGI (Study Day 17) ([19]; 5 mg/kg QW x 2 weeks IV): 12.44%
LNCaP tumour volume compared to vehicle ([20]; 5 mg/kg): no significant effect
Day 28 tumour volume (mean ± SEM) ([20]; 5 mg/kg): 551.4 ± 73.1 mm^3
Tumour growth inhibition (TGI, %) ([20]; 5 mg/kg): 30.6%
LNCaP tumour volume compared to vehicle ([20]; 10 mg/kg): no significant effect
Day 28 tumour volume (mean ± SEM) ([20]; 10 mg/kg): 666.56 ± 103.2 mm^3
Tumour growth inhibition (TGI, %) ([20]; 10 mg/kg): 13.0%

sacituzumab
tumour volume compared to vehicle alone ([21]; 2.5 mg/kg): no significant difference
ΔTGI (Study Day 28) ([21]; 2.5 mg/kg QW x 2 weeks IV): 12.11%
tumour volume compared to vehicle alone ([21]; 5 mg/kg): significant decrease
ΔTGI (Study Day 28) ([21]; 5 mg/kg QW x 2 weeks IV): 14.44%

sacituzumab govitecan
tumour volume compared to vehicle alone ([21]; 2.5 mg/kg): significant decrease
ΔTGI (Study Day 28) ([21]; 2.5 mg/kg QW x 2 weeks IV): 13.13%
tumour volume compared to vehicle alone ([21]; 5 mg/kg): significant decrease
ΔTGI (Study Day 28) ([21]; 5 mg/kg QW x 2 weeks IV): 23.39%
efficacy of treatment ([21]; Group 4, 5 mg/kg): only partially efficacious

trastuzumab emtansine
tumour volume compared to vehicle alone ([22]; 5 mg/kg IV on Study Days 0, 7, 28 and 35, agent alone): no decrease in tumour volume
mice that completely responded (of 10) ([22]; 5 mg/kg IV, agent alone): no mice
mice that partially responded (of 10) ([22]; 5 mg/kg IV, agent alone): no mice

B1: ifinatamab-DXd (conjugate, chains of the INN, looked up)
VH: QVQLVQSGAEVKKPGSSVKVSCKASGYTFTNYVMHWVRQAPGQGLEWMGYINPYNDDVKYNEKFKGRVTITADESTSTAYMELSSLRSEDTAVYYCARWGYYGSPLYYFDYWGQGTLVTVSS
VL: EIVLTQSPATLSLSPGERATLSCRASSRLIYMHWYQQKPGQAPRPLIYATSNLASGIPARFSGSGSGTDFTLTISSLEPEDFAVYYCQQWNSNPPTFGQGTKVEIK
modifications: deruxtecan (DXd) payload
tumour volume compared to vehicle alone ([19]; 2.5 mg/kg): no significant difference
ΔTGI (Study Day 17) ([19]; 2.5 mg/kg QW x 2 weeks IV): 5.24%
tumour volume compared to vehicle alone ([19]; 5 mg/kg): significantly higher tumour volume
ΔTGI (Study Day 17) ([19]; 5 mg/kg QW x 2 weeks IV): 2.86%
LNCaP tumour volume compared to vehicle ([20]; 5 mg/kg): slowed the growth of LNCaP tumours to a lesser extent
Day 28 tumour volume (mean ± SEM) ([20]; 5 mg/kg): 364.6 ± 51.7 mm^3
Tumour growth inhibition (TGI, %) ([20]; 5 mg/kg): 58.8%
LNCaP tumour volume compared to vehicle ([20]; 10 mg/kg): significantly reduced the mean volume of LNCaP tumours
Day 28 tumour volume (mean ± SEM) ([20]; 10 mg/kg): 259.5 ± 50.3 mm^3
Tumour growth inhibition (TGI, %) ([20]; 10 mg/kg): 75.0%
